In US20210269661A1, “INK COMPOSITIONS” (HEWLETT-PACKARD DEVELOPMENT COMPANY, L.P., priority 2018, published 2021):
Read-outs that look alike come from different tables or passages of the source.

Experiment: Partition coefficient of organic co-solvents (log P 1-octanol/water)
Source text: The hydrophilicity of the organic co-solvent can be quantified as a partition coefficient. As used herein, “partition coefficient” refers to a concentration ratio of a compound in an equilibrium mixture of two immiscible phases, and can be a measure of the difference in solubility of the compound in the two immiscible phases. Formula I provides an equation of quantifying the hydrophilicity of the organic co-solvents of the present disclosure, as follows: […]

[1] = equilibrium mixture of 1-octanol and water

Compound	Partition Coefficient (log P1-octanol/water) [1] [log P1-octanol/water]	Partition Coefficient (log P1-octanol/water)
O=C1CCCN1 [2-pyrrolidone]	−0.10	
CC1(C)NC(=O)NC1=O [5,5-dimethyl hydantoin]		−0.40
CCCCCCCCO [Ink 1-octanol, 1-octanol]		2.34
O=C1CCCN1CCO [N-(2-hydroxyethyl)-2-pyrrolidinone]		−0.40
CC1(C)C(=O)N(CCO)C(=O)N1CCO [di-(2-hydroxyethy)-5,5-dimethylhydantoin]		−1.39
CCC(CO)(CO)CO [ethylhydroxy propanediol]	−0.50	
OCCOCCOCCO [triethylene glycol]		−1.00
O [water]		−0.825
